Assay [1] has as its system HCT116. As to the kind of experiment: efficacy (maximum % inhibition of viability vs DMSO); higher = more cytotoxic. The following applies: 72 h. The essentials: (§1)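 HCT116 cells were plated at 250 per well in 1536-well plates and allowed 5 h to attach. CellTiter-Glo luminescence was normalized to vehicle as 0% and positive control as -100%, followed by pattern correction. Four-parameter Hill fits provided IC50 and maximal efficacy.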

Assay [2] relates to HCT116. The following applies: 72 h. The essentials: as §1

The values that follow come from the supplement of paper PMC12137928.

Each structure is given as a SMILES string. Where a name gives a salt, the structure may show the parent alone.

Consider `COc1cc2c(c(OC)c1OC)-c1ccc(OC)c(=O)cc1[C@@H](NC(C)=O)CC2` [Colchicine], for which the efficacy in the assay with HCT116 [1] (ICRF193 0 nM) was 74%; in the assay on HCT116 [1] (ICRF193 200 nM), 69.5%. The IC50 cell viability in the assay on HCT116 [2] (ICRF193 0 nM) and in the assay on HCT116 [2] (ICRF193 200 nM) was 0.0326 µM each time.

As for `NC(=O)[C@@H]1CCCN1C(=O)[C@H](Cc1c[nH]cn1)NC(=O)[C@@H]1CCC(=O)N1` [PROTIRELIN], the efficacy stood at 69.8% with HCT116 [1] (ICRF193 0 nM) and 64.8% with HCT116 [1] (ICRF193 200 nM). The figures for the IC50 cell viability with HCT116 [2] (ICRF193 0 nM) and with HCT116 [2] (ICRF193 200 nM) were 29.1 µM and 25.9 µM, respectively.

In the case of `CCN(CC)c1ccc(C(=C2C=CC(=[N+](CC)CC)C=C2)c2cc(S(=O)(=O)O)ccc2S(=O)(=O)[O-])cc1` [Isosulfan blue], the efficacy with HCT116 [1] (ICRF193 0 nM) turned out to be 76.5%; with HCT116 [1] (ICRF193 200 nM) it was 78.9%. For the same compound, the IC50 cell viability in the assay with HCT116 [2] (ICRF193 0 nM) came to 29.1 µM; in the assay on HCT116 [2] (ICRF193 200 nM) it was 18.3 µM.

As to `Cc1cc(C#N)cc(C)c1Oc1nc(Nc2ccc(C#N)cc2)nc(N)c1Br` [Etravirine], the efficacy in the assay on HCT116 [1] (ICRF193 0 nM) was determined as 49%; in the assay on HCT116 [1] (ICRF193 200 nM), 54.9%. The IC50 cell viability in the assay on HCT116 [2] (ICRF193 0 nM) and with HCT116 [2] (ICRF193 200 nM) was 29.1 µM in each case.

With `CCOC(=O)C1=C(COCCN)NC(C)=C(C(=O)OC)C1c1ccccc1Cl` (stereo unspecified) [Amlodipine], in the assay on HCT116 [1] (ICRF193 200 nM), the efficacy turned out to be 88.3%. Further, the values for the IC50 cell viability in the assay with HCT116 [2] (ICRF193 0 nM) and in the assay with HCT116 [2] (ICRF193 200 nM) were > 45.8 µM and 16.4 µM, respectively.

As for `Cc1[nH]c(/C=C2\C(=O)Nc3ccc(F)cc32)c(C)c1C(=O)NCCN1CCCC1` [Toceranib], the results for the efficacy in the assay with HCT116 [1] (ICRF193 0 nM) and in the assay on HCT116 [1] (ICRF193 200 nM) were 102% and 94.9%, respectively. Besides, the IC50 cell viability in the assay on HCT116 [2] (ICRF193 0 nM) and with HCT116 [2] (ICRF193 200 nM) was 8.96 µM in each case.

Regarding `CCN(CC)CCOc1ccc(C(=C(Cl)c2ccccc2)c2ccccc2)cc1` [Clomifene citrate], the figures for the efficacy in the assay with HCT116 [1] (ICRF193 0 nM) and with HCT116 [1] (ICRF193 200 nM) were 110% and 120%, respectively. For the same compound, the IC50 cell viability was 18.3 µM in the assay with HCT116 [2] (ICRF193 0 nM) and 20.6 µM in the assay with HCT116 [2] (ICRF193 200 nM).

In the case of `CC[C@@]1(O)C(=O)OCc2c1cc1n(c2=O)Cc2cc3c(CN(C)C)c(O)ccc3nc2-1` [Topotecan hydrochloride], the efficacy in the assay with HCT116 [1] (ICRF193 0 nM) turned out to be 94.2%; with HCT116 [1] (ICRF193 200 nM), 102%. Further, the IC50 cell viability was 0.73 µM in the assay with HCT116 [2] (ICRF193 0 nM) and 0.206 µM in the assay with HCT116 [2] (ICRF193 200 nM).

Regarding `O=C1Nc2ccc(Cl)cc2[C@@](C#CC2CC2)(C(F)(F)F)O1` [Efavirenz], the efficacy is 56.7% in the assay with HCT116 [1] (ICRF193 0 nM) and 44.6% with HCT116 [1] (ICRF193 200 nM). Also, the IC50 cell viability turned out to be 20.6 µM with HCT116 [2] (ICRF193 0 nM) and 25.9 µM in the assay with HCT116 [2] (ICRF193 200 nM).

Consider `CCCC(=O)Nc1ncnc2c1ncn2[C@@H]1O[C@@H]2COP(=O)(O)O[C@H]2[C@H]1OC(=O)CCC` [BUCLADESINE], for which the efficacy in the assay with HCT116 [1] (ICRF193 0 nM) was found to be 48.8%. For the same compound, the IC50 cell viability in the assay on HCT116 [2] (ICRF193 0 nM) was 25.9 µM; in the assay on HCT116 [2] (ICRF193 200 nM) it was > 45.8 µM.

For the compound `COc1ccc(C(C)(C)C)cc1CN[C@H]1C2CCN(CC2)[C@H]1C(c1ccccc1)c1ccccc1` [Maropitant], the figures for the efficacy in the assay on HCT116 [1] (ICRF193 0 nM) and in the assay on HCT116 [1] (ICRF193 200 nM) were 60.3% and 96%, respectively. The IC50 cell viability in the assay on HCT116 [2] (ICRF193 0 nM) and in the assay on HCT116 [2] (ICRF193 200 nM) was 18.3 µM throughout.

For the compound `CCCCCCOc1ccc(C(=N)N(CCCC)CCCC)c2ccccc12` [Bunamidine hydrochloride], the efficacy was 104% in the assay on HCT116 [1] (ICRF193 0 nM) and 106% with HCT116 [1] (ICRF193 200 nM). For the same compound, the IC50 cell viability in the assay with HCT116 [2] (ICRF193 0 nM) came to 11.6 µM; in the assay on HCT116 [2] (ICRF193 200 nM) it was 10.3 µM.

On to `CC(C)C[C@H](NC(=O)CNC(=O)c1cc(Cl)ccc1Cl)B1OC(=O)C(CC(=O)O)(CC(=O)O)O1` [MLN9708], for which the efficacy came out at 96.2% in the assay with HCT116 [1] (ICRF193 0 nM) and 94.4% in the assay with HCT116 [1] (ICRF193 200 nM). For the same compound, the IC50 cell viability with HCT116 [2] (ICRF193 0 nM) was 0.13 µM; in the assay with HCT116 [2] (ICRF193 200 nM), 0.103 µM.

For the compound `CCOC(=O)[C@@H](N)Cc1ccc(-c2cc(O[C@H](c3ccc(Cl)cc3-n3ccc(C)n3)C(F)(F)F)nc(N)n2)cc1` [LX1606 (Hippurate)], the efficacy with HCT116 [1] (ICRF193 0 nM) is 64.7%; with HCT116 [1] (ICRF193 200 nM), 102%. Moreover, the IC50 cell viability amounted to 11.6 µM in the assay on HCT116 [2] (ICRF193 0 nM) and 16.4 µM in the assay with HCT116 [2] (ICRF193 200 nM).

As to `CC[C@@H](C(=O)O)[C@@H]1O[C@@H]([C@@H](C)[C@H](O)[C@H](C)C(=O)[C@H](CC)[C@H]2O[C@]3(C=C[C@@H](O)[C@]4(CC[C@@](C)([C@H]5CC[C@](O)(CC)[C@H](C)O5)O4)O3)[C@H](C)C[C@@H]2C)[C@@H](C)C[C@@H]1C` [Narasin], the values for the efficacy in the assay on HCT116 [1] (ICRF193 0 nM) and in the assay on HCT116 [1] (ICRF193 200 nM) were 80.5% and 94.5%, respectively. For the same compound, the IC50 cell viability in the assay on HCT116 [2] (ICRF193 0 nM) was 3.66 µM; in the assay with HCT116 [2] (ICRF193 200 nM), 2.91 µM.

`c1ccc(-c2ccc(C(c3ccccc3)n3ccnc3)cc2)cc1` (stereo unspecified) [Bifonazole]: the efficacy in the assay on HCT116 [1] (ICRF193 0 nM) worked out at 75.7%; in the assay with HCT116 [1] (ICRF193 200 nM) it was 75.2%. Besides, the IC50 cell viability with HCT116 [2] (ICRF193 0 nM) turned out to be 25.9 µM; in the assay on HCT116 [2] (ICRF193 200 nM) it was 16.4 µM.

Take `CC(C)C[C@H](NC(=O)[C@H](Cc1ccccc1)NC(=O)c1cnccn1)B(O)O` [Bortezomib]: the efficacy with HCT116 [1] (ICRF193 0 nM) was found to be 93.7%; in the assay on HCT116 [1] (ICRF193 200 nM) it was 97.3%. Also, the IC50 cell viability in the assay with HCT116 [2] (ICRF193 0 nM) and with HCT116 [2] (ICRF193 200 nM) was 0.00517 µM each time.

For `CC/N=C(\NCC)NCCCC[C@H](NC(=O)[C@H](CC(C)C)NC(=O)[C@@H](CCCCN/C(=N/CC)NCC)NC(=O)[C@H](Cc1ccc(O)cc1)NC(=O)[C@H](CO)NC(=O)[C@@H](Cc1cccnc1)NC(=O)[C@@H](Cc1ccc(Cl)cc1)NC(=O)[C@@H](Cc1ccc2ccccc2c1)NC(C)=O)C(=O)N1CCC[C@H]1C(=O)N[C@H](C)C(N)=O` [Ganirelix], the efficacy came out at 80.9% in the assay on HCT116 [1] (ICRF193 0 nM) and 82.7% in the assay with HCT116 [1] (ICRF193 200 nM). In addition, the IC50 cell viability in the assay on HCT116 [2] (ICRF193 0 nM) was determined as 4.61 µM; in the assay with HCT116 [2] (ICRF193 200 nM), 5.17 µM.

For the compound `C[C@@H](c1nc(-c2ccc(C#N)cc2)cs1)[C@](O)(Cn1cncn1)c1cc(F)ccc1F` [Isavuconazole], in the assay on HCT116 [1] (ICRF193 200 nM), the efficacy is 45.8%. Further, the IC50 cell viability in the assay with HCT116 [2] (ICRF193 0 nM) was > 45.8 µM; in the assay on HCT116 [2] (ICRF193 200 nM), 8.2 µM.

In the case of `COc1cc(N2CCC(N3CCN(C)CC3)CC2)ccc1Nc1ncc(Cl)c(Nc2ccccc2P(C)(C)=O)n1` [Brigatinib], the results for the efficacy in the assay with HCT116 [1] (ICRF193 0 nM) and with HCT116 [1] (ICRF193 200 nM) were 82.6% and 92.5%, respectively. For the same compound, the IC50 cell viability with HCT116 [2] (ICRF193 0 nM) worked out at 20.6 µM; in the assay on HCT116 [2] (ICRF193 200 nM) it was 13 µM.

For `CN(C)C(=O)C(CCN1CCC(O)(c2ccc(Cl)cc2)CC1)(c1ccccc1)c1ccccc1` [Loperamide hydrochloride], the efficacy was determined as 59.4% in the assay with HCT116 [1] (ICRF193 0 nM) and 54.9% in the assay on HCT116 [1] (ICRF193 200 nM). For the same compound, the IC50 cell viability with HCT116 [2] (ICRF193 0 nM) turned out to be 14.6 µM; with HCT116 [2] (ICRF193 200 nM), 18.3 µM.
